This is an account of results in patent US11685729B2, “C5a receptor modulators” (IDORSIA PHARMACEUTICALS LTD., priority 2018, dated 2023).

The target of the first test is C5AR1 (Homo sapiens (Human), UniProt P21730). The test can be described thus: In vitro assay: PathHunter beta-arrestin antagonist assay in CHO-K1 C5AR1 beta-arrestin cell line, stimulated with C5a agonist.
Sequence of C5AR1 (P21730 whole entry): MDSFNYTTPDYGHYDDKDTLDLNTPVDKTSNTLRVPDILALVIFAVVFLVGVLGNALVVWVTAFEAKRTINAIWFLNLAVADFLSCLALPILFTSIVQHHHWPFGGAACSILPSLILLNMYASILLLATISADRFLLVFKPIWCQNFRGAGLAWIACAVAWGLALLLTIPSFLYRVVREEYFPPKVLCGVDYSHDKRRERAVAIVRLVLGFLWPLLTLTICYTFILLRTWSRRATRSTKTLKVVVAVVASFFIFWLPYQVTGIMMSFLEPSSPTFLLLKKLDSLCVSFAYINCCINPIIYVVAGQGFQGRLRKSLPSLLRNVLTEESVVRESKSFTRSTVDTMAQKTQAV
Settings: not given
For the compound `Cc1cccc(F)c1N1CCC(N2Cc3ccccc3N(Cc3nnccc3OC(C)C)C2=O)CC1` [Example 80, 3-[1-(2-Fluoro-6-methyl-phenyl)-piperidin-4-yl]-1-(4-isopropoxy-pyridazin-3-ylmethyl)-3,4-dihydro-1H-quinazolin-2-one], the IC50 was 1790 nM.

The test is the same for the next values; noted with them: read-out: C5aR IC50; CHO-K1 C5AR1 beta-arrestin cell line; 1-10 nM C5a agonist; geometric mean values.
Turning to `CC(=O)OCCOc1ccccc1CN1C(=O)N(C2CCN(c3c(C)cccc3F)CC2)Cc2ccccc21` [Example 48, Acetic acid 2-(2-{3-[1-(2-fluoro-6-methyl-phenyl)-piperidin-4-yl]-2-oxo-3,4-dihydro-2H-quinazolin-1-ylmethyl}-phenoxy)-ethyl ester], the IC50 is 298 nM.

For the compound `COC(=O)C(c1ccccc1OC)N1C(=O)N(C2CCN(c3c(C)cccc3F)CC2)Cc2ccccc21` (stereo not shown) [Example 49, {3-[1-(2-Fluoro-6-methyl-phenyl)-piperidin-4-yl]-2-oxo-3,4-dihydro-2H-quinazolin-1-yl}-(2-methoxy-phenyl)-acetic acid methyl ester], the IC50 was 102 nM. In the case of `Cc1cccc(F)c1N1CCC(N2Cc3ccccc3N(Cc3ccccc3OCCO)C2=O)CC1` [Example 50, 3-[1-(2-Fluoro-6-methyl-phenyl)-piperidin-4-yl]-1-[2-(2-hydroxy-ethoxy)-benzyl]-3,4-dihydro-1H-quinazolin-2-one], the IC50 worked out at 2560 nM.

As for `Cc1cccc(F)c1N1CCC(N2Cc3ccccc3N(Cc3ccccc3OC3COC3)C2=O)CC1` [Example 51, 3-[1-(2-Fluoro-6-methyl-phenyl)-piperidin-4-yl]-1-[2-(oxetan-3-yloxy)-benzyl]-3,4-dihydro-1H-quinazolin-2-one], the IC50 came to 113 nM. In the case of `Cc1cccc(F)c1N1CCC(N2Cc3ccccc3N(Cc3ccccc3OC3CCC3)C2=O)CC1` [Example 52, 1-(2-Cyclobutoxy-benzyl)-3-[1-(2-fluoro-6-methyl-phenyl)-piperidin-4-yl]-3,4-dihydro-1H-quinazolin-2-one], the IC50 amounted to 69 nM. On the same count and under the same terms, the result for `Cc1cccc(F)c1N1CCC(N2Cc3ccccc3N(Cc3ccccc3OC3CCOCC3)C2=O)CC1` [Example 53, 3-[1-(2-Fluoro-6-methyl-phenyl)-piperidin-4-yl]-1-[2-(tetrahydro-pyran-4-yloxy)-benzyl]-3,4-dihydro-1H-quinazolin-2-one] reads 32 nM. On to `Cc1cccc(F)c1N1CCC(N2Cc3ccccc3N(Cc3ccccc3OCC3CC3)C2=O)CC1` [Example 54, 1-(2-Cyclopropylmethoxy-benzyl)-3-[1-(2-fluoro-6-methyl-phenyl)-piperidin-4-yl]-3,4-dihydro-1H-quinazolin-2-one], for which the IC50 turned out to be 66 nM. As to `Cc1cccc(F)c1N1CCC(N2Cc3ccccc3N(Cc3ccccc3OCC#N)C2=O)CC1` [Example 55, (2-{3-[1-(2-Fluoro-6-methyl-phenyl)-piperidin-4-yl]-2-oxo-3,4-dihydro-2H-quinazolin-1-ylmethyl}-phenoxy)-acetonitrile], the IC50 came to 512 nM.

Regarding `Cc1cccc(F)c1N1CCC(N2Cc3ccccc3N(Cc3ccccc3C3CC3)C2=O)CC1` [Example 56, 1-(2-Cyclopropyl-benzyl)-3-[1-(2-fluoro-6-methyl-phenyl)-piperidin-4-yl]-3,4-dihydro-1H-quinazolin-2-one], the IC50 stood at 28 nM. Consider `Cc1cccc(F)c1N1CCC(N2Cc3ccccc3N(Cc3ccccc3C(C)C)C2=O)CC1` [Example 57, 3-[1-(2-Fluoro-6-methyl-phenyl)-piperidin-4-yl]-1-(2-isopropyl-benzyl)-3,4-dihydro-1H-quinazolin-2-one], for which the IC50 turned out to be 24 nM. Same read-out and setting: for `Cc1cccc(F)c1N1CCC(N2Cc3nccnc3N(Cc3ccccc3C(F)(F)F)C2=O)CC1` [Example 58, 3-[1-(2-Fluoro-6-methyl-phenyl)-piperidin-4-yl]-1-(2-trifluoromethyl-benzyl)-3,4-dihydro-1H-pteridin-2-one] the value was 21 nM.

As to `Cc1cccc(F)c1N1CCC(N2Cc3ccccc3N(Cc3nccnc3OC(C)C)C2=O)CC1` [Example 59, 3-[1-(2-Fluoro-6-methyl-phenyl)-piperidin-4-yl]-1-(3-isopropoxy-pyrazin-2-ylmethyl)-3,4-dihydro-1H-quinazolin-2-one], the IC50 is 38 nM. As for `Cc1cccc(F)c1N1CCC(N2Cc3ccccc3N(Cc3ncccc3OC(C)C)C2=O)CC1` [Example 60, 3-[1-(2-Fluoro-6-methyl-phenyl)-piperidin-4-yl]-1-(3-isopropoxy-pyridin-2-ylmethyl)-3,4-dihydro-1H-quinazolin-2-one], the IC50 turned out to be 28 nM. As to `Cc1cccc(F)c1N1CCC(N2Cc3ccccc3N(Cc3cnccc3C(C)C)C2=O)CC1` [Example 61, 3-[1-(2-Fluoro-6-methyl-phenyl)-piperidin-4-yl]-1-(4-isopropyl-pyridin-3-ylmethyl)-3,4-dihydro-1H-quinazolin-2-one], the IC50 was found to be 36 nM. As to `Cc1cccc(F)c1N1CCC(N2Cc3ccccc3N(Cc3nccnc3C(C)C)C2=O)CC1` [Example 62, 3-[1-(2-Fluoro-6-methyl-phenyl)-piperidin-4-yl]-1-(3-isopropyl-pyrazin-2-ylmethyl)-3,4-dihydro-1H-quinazolin-2-one], the IC50 came out at 38 nM. For `Cc1cccc(F)c1N1CCC(N2Cc3ccccc3N(Cc3cncnc3C(C)C)C2=O)CC1` [Example 63, 3-[1-(2-Fluoro-6-methyl-phenyl)-piperidin-4-yl]-1-(4-isopropyl-pyrimidin-5-ylmethyl)-3,4-dihydro-1H-quinazolin-2-one], the IC50 stood at 61 nM. As to `Cc1cccc(F)c1N1CCC(N2Cc3cncnc3N(Cc3ccccc3C(F)(F)F)C2=O)CC1` [Example 64, 3-[1-(2-Fluoro-6-methyl-phenyl)-piperidin-4-yl]-1-(2-trifluoromethyl-benzyl)-3,4-dihydro-1H-pyrimido[4,5-d]pyrimidin-2-one], the IC50 stood at 782 nM. Same read-out and setting: the result for `Cc1cccc(F)c1N1CCC(N2Cc3ccccc3N(Cc3cccnc3C(F)(F)F)C2=O)CC1` [Example 65, 3-[1-(2-Fluoro-6-methyl-phenyl)-piperidin-4-yl]-1-(2-trifluoromethyl-pyridin-3-ylmethyl)-3,4-dihydro-1H-quinazolin-2-one] reads 67 nM; that for `Cc1cccc(F)c1N1CCC(N2Cc3nnccc3N(Cc3ccccc3C(F)(F)F)C2=O)CC1` [Example 66, 7-[1-(2-Fluoro-6-methyl-phenyl)-piperidin-4-yl]-5-(2-trifluoromethyl-benzyl)-7,8-dihydro-5H-pyrimido[5,4-c]pyridazin-6-one], 1920 nM; that for `Cc1cccc(F)c1N1CCC(N2Cc3ccccc3N(Cc3cnccc3C(F)(F)F)C2=O)CC1` [Example 67, 3-[1-(2-Fluoro-6-methyl-phenyl)-piperidin-4-yl]-1-(4-trifluoromethyl-pyridin-3-ylmethyl)-3,4-dihydro-1H-quinazolin-2-one], 46 nM. With `Cc1cccc(F)c1N1CCC(N2Cc3ccccc3N(Cc3ccccc3OC3CC3)C2=O)CC1` [Example 68, 1-(2-Cyclopropoxy-benzyl)-3-[1-(2-fluoro-6-methyl-phenyl)-piperidin-4-yl]-3,4-dihydro-1H-quinazolin-2-one], the IC50 came out at 66 nM. On the same count and under the same terms, for `Cc1cccc(F)c1N1CCC(N2Cc3ccccc3N(Cc3ncccc3C(F)(F)F)C2=O)CC1` [Example 69, 3-[1-(2-Fluoro-6-methyl-phenyl)-piperidin-4-yl]-1-(3-trifluoromethyl-pyridin-2-ylmethyl)-3,4-dihydro-1H-quinazolin-2-one] the value was 13 nM; for `Cc1nn(C)c(N2CCC(N3Cc4ccccc4N(Cc4ccccc4C(F)(F)F)C3=O)CC2)c1C#N` [Example 72, 1,3-Dimethyl-5-{4-[2-oxo-1-(2-trifluoromethyl-benzyl)-1,4-dihydro-2H-quinazolin-3-yl]-piperidin-1-yl}-1H-pyrazole-4-carbonitrile], 2660 nM; for `Cc1nn(C)c(N2CCC(N3Cc4ccccc4N(Cc4ccccc4C(F)(F)F)C3=O)CC2)c1Cl` [Example 73, 3-[1-(4-Chloro-2,5-dimethyl-2H-pyrazol-3-yl)-piperidin-4-yl]-1-(2-trifluoromethyl-benzyl)-3,4-dihydro-1H-quinazolin-2-one], 1340 nM. Consider `Cc1cccc(F)c1N1CCC(N2Cc3ccccc3N(Cc3ccccc3OC(F)(F)F)C2=O)CC1` [Example 74, 3-[1-(2-Fluoro-6-methyl-phenyl)-piperidin-4-yl]-1-(2-trifluoromethoxy-benzyl)-3,4-dihydro-1H-quinazolin-2-one], for which the IC50 stood at 17 nM.

For `Cc1cccc(F)c1N1CCC(N2Cc3ccccc3N(Cc3ccccc3Cl)C2=O)CC1` [Example 75, 1-(2-Chloro-benzyl)-3-[1-(2-fluoro-6-methyl-phenyl)-piperidin-4-yl]-3,4-dihydro-1H-quinazolin-2-one], the IC50 amounted to 55 nM. Consider `O=C1N(Cc2ccccc2C(F)(F)F)c2ccccc2CN1C1CCN(c2c(F)cccc2C(F)(F)F)CC1` [Example 76, 3-[1-(2-Fluoro-6-trifluoromethyl-phenyl)-piperidin-4-yl]-1-(2-trifluoromethyl-benzyl)-3,4-dihydro-1H-quinazolin-2-one], for which the IC50 stood at 50 nM. In the case of `Cc1cccc(F)c1N1CCCC(N2Cc3ccccc3N(Cc3ccccc3C(F)(F)F)C2=O)CC1` (stereo not shown) [Example 77, 3-[1-(2-Fluoro-6-methyl-phenyl)-azepan-4-yl]-1-(2-trifluoromethyl-benzyl)-3,4-dihydro-1H-quinazolin-2-one], the IC50 is 175 nM. `O=C1N(Cc2ccccc2C(F)(F)F)c2ccccc2CN1C1CCN(c2c(F)cccc2OC(F)(F)F)CC1` [Example 78, 3-[1-(2-Fluoro-6-trifluoromethoxy-phenyl)-piperidin-4-yl]-1-(2-trifluoromethyl-benzyl)-3,4-dihydro-1H-quinazolin-2-one]: the IC50 came to 80 nM.

With `Cc1cccc(Cl)c1N1CCC(N2Cc3ccccc3N(Cc3ccccc3C(F)(F)F)C2=O)CC1` [Example 79, 3-[1-(2-Chloro-6-methyl-phenyl)-piperidin-4-yl]-1-(2-trifluoromethyl-benzyl)-3,4-dihydro-1H-quinazolin-2-one], the IC50 came to 57 nM.

As usually defined, the IC50 is the point on the concentration scale where inhibition reaches its midpoint.
